From US20170362228A1, “TETRAHYDRO-PYRIDO[3,4-b]INDOLE ESTROGEN RECEPTOR MODULATORS AND USES THEREOF” (Genentech, Inc., priority 2016, published 2017)
pEC50: −log10 of the molar value. Like-named read-outs stand apart in the source and are kept apart here.

Legend:
[1] = biological target: T1, estrogen receptor alpha (ESR1) (Homo sapiens, UniProt P03372); assay: Breast Cancer Cell ERa High Content Fluorescence Imaging Degradation Assay (Example 901); assay type: cell-based; details: MCF7 breast cancer cells, 4 hours, plateau of the maximal effect
T1 construct: endogenous in cells; host or cells: MCF7 breast cancer cells
T1 sequence (P03372 1-595): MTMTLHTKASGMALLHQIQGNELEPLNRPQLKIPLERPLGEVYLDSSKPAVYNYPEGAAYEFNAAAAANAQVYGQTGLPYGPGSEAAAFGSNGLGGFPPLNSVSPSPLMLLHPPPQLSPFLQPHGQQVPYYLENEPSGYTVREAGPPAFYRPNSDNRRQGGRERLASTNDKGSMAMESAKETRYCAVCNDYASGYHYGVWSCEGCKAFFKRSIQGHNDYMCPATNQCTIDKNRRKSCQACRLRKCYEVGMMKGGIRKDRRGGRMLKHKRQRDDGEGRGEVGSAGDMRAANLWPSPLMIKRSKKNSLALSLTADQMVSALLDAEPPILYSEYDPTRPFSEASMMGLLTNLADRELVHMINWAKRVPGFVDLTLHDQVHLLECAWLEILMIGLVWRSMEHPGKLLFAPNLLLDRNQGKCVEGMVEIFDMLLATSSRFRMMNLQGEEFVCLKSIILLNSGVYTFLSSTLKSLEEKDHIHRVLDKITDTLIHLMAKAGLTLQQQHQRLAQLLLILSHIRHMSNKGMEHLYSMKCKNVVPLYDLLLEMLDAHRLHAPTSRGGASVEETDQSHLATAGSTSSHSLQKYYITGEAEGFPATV
Experimental: MCF7 breast cancer cells were seeded on day 1 at a density of 10,000 cells per well in 384 well poly-lysine coated tissue culture plate (Greiner # T-3101-4), in 50 μL/well RPMI (phenol red free), 10% FBS (Charcoal stripped), containing L-glutamine. On day 2, compounds were prepared at 2 compound source concentrations: 100 μM and 1 μM (ultimately to give 2 overlapping titration curves), in a Labcyte low dead volume plate, 10 μL/well, and 10 μL of DMSO in designated wells for backfill, and 5 μM Fulvestrant (control compound) in designated wells. Compounds and controls were dispensed using a Labcyte Echo acoustic dispenser to dispense compounds with a predefined serial dilution (1.8×, 10 point, in duplicate) and appropriate backfill and control compounds (final total volume transferred was 417.5 nL and compound dispense volume ranges from 2.5 nL to 417.5 nL; 0.84% DMSO (v/v) final), ultimately producing a concentration range from 0.05 nM to 835 nM. Cell plates were incubated at 37° C., for 4 hours. Fixation and permeabilization were carried out using a Biotek EL406 plate washer and dispenser as follows. Cells were fixed by addition of 15 μL of 16% paraformaldehyde (Electron Microscopy Sciences #15710-S) directly to the 50 μL cell culture medium in each well using the peristaltic pump 5 μL cassette on a Biotek EL406 (final concentration of formaldehyde was 3.7% w/v). Samples were incubated 30 minutes. Well contents was aspirated and 50 μL/well of Phosphate Buffered Saline (PBS) containing 0.5% w/v bovine serum albumen, 0.5% v/v Triton X-100 (Antibody Dilution Buffer) was added to each well. Samples were incubated for 30 minutes. Well contents were aspirated and washed 3 times with 100 μL/well of PBS. Immunofluorescence staining of estrogen receptor alpha (ESR1) was carried out using a Biotek EL406 plate washer and dispenser as follows. The well supernatant was aspirated from the wells and 25 μL/well of anti-ESR1 mAb (F10) (Santa Cruz sc-8002) diluted 1:1000 in Antibody Dilution Buffer was dispensed. Samples were incubated for 2 hours at room temperature. Samples were washed 4 times with 100 μL/well of PBS. 25 uL/well of secondary antibody solution (Alexafluor 488 conjugate anti-mouse IgG (LifeTechnologies #A21202) diluted 1:1000 and Hoechst 33342 1 μg/ml diluted in Antibody Dilution Buffer) were dispensed into each well. Samples were incubated for 2 hours at room temperature. Samples were washed 3 times with 100 μL/well of PBS using a Biotek EL406. Quantitative fluorescence imaging of ESR1 was carried out using a Cellomics Arrayscan V (Thermo). Fluorescence images of the samples (Channel 1: XF53 Hoechst (DNA stain); Channel 2: XF53 FITC (ESR1 stain)) were acquired using a Cellomics VTI Arrayscan using the Bioapplication “Compartmental Analysis” using the auto-exposure (based on DMSO control wells) setting “peak target percentile” set to 25% target saturation for both channels. Channel 1 (DNA stain) was used to define the nuclear region (Circ). Measurements of “Mean_CircAvgIntCh2”, which is the Alexafluor 488 fluorescence intensity (ESR1) within the nuclear region, was measured on a per cell basis and averaged over all the measured cells. Data analysis was carried out using Genedata Screener Software, with DMSO and 5 nM Fulvestrant treated samples being used to define the 0% and 100% changes in ESR1. The “Robust Fit” method was used to define the inflexion point of curve (EC50) and the plateau of the maximal effect (Sinf). Degradation data for exemplary Formula I compounds is reported as ER-alpha MCF7 HCS Sinf(%) values in Table 1.

[2] = tested on: MCF7 cells; assay: In vitro cell proliferation assays (Examples 902 and 903), MCF7; assay type: cell-based; details: Homo sapiens
Experimental: Efficacy of estrogen receptor modulator compounds and chemotherapeutic compounds are measured by a cell proliferation assay employing the following protocol (Mendoza et al (2002) Cancer Res. 62:5485-5488).
The CellTiter-Glo® Luminescent Cell Viability Assay is a homogeneous method to determine the number of viable cells in culture based on quantitation of the ATP present, which signals the presence of metabolically active cells. The CellTiter-Glo® Assay is designed for use with multiwell plate formats, making it ideal for automated high-throughput screening (HTS), cell proliferation and cytotoxicity assays. The homogeneous assay procedure involves adding a single reagent (CellTiter-Glo® Reagent) directly to cells cultured in serum-supplemented medium. Cell washing, removal of medium or multiple pipetting steps are not required. The Cell Titer-Glo® Luminescent Cell Viability Assay, including reagents and protocol are commercially available (Promega Corp., Madison, Wis., Technical Bulletin TB288).
The assay assesses the ability of compounds to enter cells and inhibit cell proliferation. The assay principle is based on the determination of the number of viable cells present by quantitating the ATP present in a homogenous assay where addition of the Cell TiterGlo® reagent results in cell lysis and generation of a luminescent signal through the luciferase reaction. The luminescent signal is proportional to the amount of ATP present.
Procedure: Day 1—Seed Cell Plates (384-well black, clear bottom, microclear, TC plates with lid from Falcon #353962), Harvest cells, Seed cells at 1000 cells per 54 μl per well into 384 well Cell Plates for 3 days assay. Cell Culture Medium: RPMI or DMEM high glucose, 10% Fetal Bovine Serum, 2 mM L-Glutamine, P/S. Incubate 0/N (overnight) at 37° C., 5% CO2.
Day 2—Add Drug to Cells, Compound Dilution, DMSO Plates (serial 1:2 for 9 points). Add 20 μl of compound at 10 mM in the 2nd column of 96 well plate. Perform serial 1:2 across the plate (10 μl+20 μl 100% DMSO) for a total of 9 points using Precision Media Plates 96-well conical bottom polypropylene plates from Nunc (cat.#249946) (1:50 dilution). Add 147 μl of Media into all wells. Transfer 3 μl of DMSO+compound from each well in the DMSO Plate to each corresponding well on Media Plate using Rapidplate® (Caliper, a Perkin-Elmer Co.). For 2 drug combination studies, transfer one drug 1.5 μl of DMSO+compound from each well in the DMSO Plate to each corresponding well on Media Plate using Rapidplate. Then, transfer another drug 1.5 μl to the medium plate.
Drug Addition to Cells, Cell Plate (1:10 dilution): Add 6 μl of media+compound directly to cells (54 μl of media on the cells already). Incubate 3 days at 37° C., 5% CO2 in an incubator that will not be opened often.
Day 5—Develop Plates, Thaw Cell Titer Glo Buffer at room temperature: Remove Cell Plates from 37° C. and equilibrate to room temperature for about 30 minutes. Add Cell Titer-Glo® Buffer to Cell Titer-Glo® Substrate (bottle to bottle). Add 30 μl Cell Titer-Glo® Reagent (Promega cat.# G7572) to each well of cells. Place on plate shaker for about 30 minutes. Read luminescence on Analyst HT Plate Reader (half second per well).
Cell viability assays and combination assays: Cells were seeded at 1000-2000 cells/well in 384-well plates for 16 h. On day two, nine serial 1:2 compound dilutions were made in DMSO in a 96 well plate. The compounds were further diluted into growth media using a Rapidplate® robot (Zymark Corp., Hopkinton, Mass.). The diluted compounds were then added to quadruplicate wells in 384-well cell plates and incubated at 37° C. and 5% CO2. After 4 days, relative numbers of viable cells were measured by luminescence using Cell Titer-Glo® (Promega) according to the manufacturer's instructions and read on a Wallac Multilabel Reader® (PerkinElmer, Foster City). EC50 values were calculated using Prism® 4.0 software (GraphPad, San Diego). […]

[3] = Table 1a, DMSO and Fulvestrant define 0% and 100% changes in ESR1
[4] = MCF7, Table 1a, read-out: ER-alpha MCF7 HCS (EC50)
[5] = MCF7, Table 1b, read-out: ER-alpha MCF7 HCS (EC50)
[6] = MCF7, Table 2, Comparator compounds, read-out: ER-alpha MCF7 HCS EC50

| pEC50 [2, 4] | ER-alpha MCF7 HCS (S inf) ([1]; Table 1b) [%] | pEC50 [2, 5] | pEC50 [2, 6] | SMILES | further results |
| --- | --- | --- | --- | --- | --- |
| 9.64 | – | – | – | C[C@@H]1Cc2c([nH]c3ccccc23)[C@@H](c2c(F)cc(C(O)C3CN(CCCF)C3)cc2F)N1CC(F)(F)F (stereo partly drawn) [Compound 109, (3,5-difluoro-4-((1R,3R)-3-methyl-2-(2,2,2-trifluoroethyl)-2,3,4,9-tetrahydro-1H-pyrido[3,4-b]indol-1-yl)phenyl)(1-(3-fluoropropyl)azetidin-3-yl)methanol] | ER-alpha MCF7 HCS (S inf) [1, 3]: −98.1% |
| – | −102 | 10.26 | – | C[C@@H]1Cc2c([nH]c3ccccc23)[C@@H](c2c(F)cc([C@H](F)C3CN(CCCF)C3)cc2F)N1C[C@@H](F)CO (single isomer, unassigned) [Compound 156] | – |
| – | −89 | 9.97 | – | CO[C@@H](c1cc(F)c([C@@H]2c3[nH]c4ccccc4c3C[C@@H](C)N2CC(F)(F)CO)c(F)c1)C1CN(CCCF)C1 [Compound 169, 3-((1R,3R)-1-(2,6-Difluoro-4-((R)-(1-(3-fluoropropyl)azetidin-3-yl)(methoxy)methyl)phenyl)-3-methyl-3,4-dihydro-1H-pyrido[3,4-b]indol-2(9H)-yl)-2,2-difluoropropan-1-ol] | – |
| – | −98 | 10.24 | – | C[C@@H]1Cc2c([nH]c3ccccc23)[C@@H](c2c(F)cc([C@@](C)(O)C3CN(CCCF)C3)cc2F)N1CC(F)(F)CO [Compound 154, 3-((1R,3R)-1-(2,6-difluoro-4-((S)-1-(1-(3-fluoropropyl)azetidin-3-yl)-1-hydroxyethyl)phenyl)-3-methyl-3,4-dihydro-1H-pyrido[3,4-b]indol-2(9H)-yl)-2,2-difluoropropan-1-ol] | – |
| – | – | – | 10.19 | C[C@@H]1Cc2c([nH]c3ccccc23)[C@@H](c2ccc([C@@H](O)C3CN(CCCF)C3)cc2)N1CC(C)(C)F [Comparator compound B, (S)-(4-((1R,3R)-2-(2-fluoro-2-methylpropyl)-3-methyl-2,3,4,9-tetrahydro-1H-pyrido[3,4-b]indol-1-yl)phenyl)(1-(3-fluoropropyl)azetidin-3-yl)methanol, reference compound] | – |
| 9.56 | – | – | – | C[C@@H]1Cc2c([nH]c3ccccc23)[C@@H](c2c(F)cc([C@@H](O)C3CN(CCCF)C3)cc2F)N1C[C@@H](F)CO (single isomer, unassigned) [Compound 138] | ER-alpha MCF7 HCS (S inf) [1, 3]: −97.67% |
| – | – | – | 10.57 | C[C@@H]1Cc2c([nH]c3ccccc23)[C@@H](c2c(F)cc(NC3CN(CCCF)C3)cc2F)N1CC(F)(F)CO [Comparator compound A, 3-[(1R,3R)-1-[2,6-difluoro-4-[[1-(3-fluoropropyl)azetidin-3-yl]amino]phenyl]-3-methyl-1,3,4,9-tetrahydropyrido[3,4-b]indol-2-yl]-2,2-difluoro-propan-1-ol, reference compound] | – |
| 9.51 | – | – | – | C[C@@H]1Cc2c([nH]c3ccccc23)[C@@H](c2c(F)cc([C@@H](O)C3CN(CCCF)C3)cc2F)N1C[C@H](F)CO (single isomer, unassigned) [Compound 139] | – |
| 9.86 | – | – | – | C[C@@H]1Cc2c([nH]c3ccccc23)[C@@H](c2c(F)cc([C@@H](F)C3CN(CCCF)C3)cc2F)N1CC(C)(C)F [Compound 102, (1R,3R)-1-(2,6-difluoro-4-((S)-fluoro(1-(3-fluoropropyl)azetidin-3-yl)methyl)phenyl)-2-(2-fluoro-2-methylpropyl)-3-methyl-2,3,4,9-tetrahydro-1H-pyrido[3,4-b]indole] | – |
| – | – | – | 9.92 | C[C@@H]1Cc2c([nH]c3ccccc23)[C@@H](c2ccc([C@H](O)C3CN(CCCF)C3)cc2)N1CC(C)(C)F [Comparator compound C, (R)-(4-((1R,3R)-2-(2-fluoro-2-methylpropyl)-3-methyl-2,3,4,9-tetrahydro-1H-pyrido[3,4-b]indol-1-yl)phenyl)(1-(3-fluoropropyl)azetidin-3-yl)methanol, reference compound] | – |
